Measured values published in patent publication US11034674B2, “Methods of treating inflammation or neuropathic pain” (H. Lundbeck A/S, priority 2015, dated 2021).
Structures can show the parent of a compound that is named as a salt. Where two headings read alike, the source gives them in different places.

Key:
[1] = Phase 1 single- and multiple-dose study: safety and tolerability; format: in vivo, human
Protocol: (§1) General Design and Methodology: The purpose of this study is to assess the initial safety, tolerability, pharmacokinetics, and pharmacodynamics of Compound 1 (administered as Capsules of the hydrochloride salt of Compound 1) in healthy adults. […] Data from this study is used to select doses and dose regimens for subsequent clinical studies.
In Part 2, Panels are dosed sequentially.

formalin-challenged rats = assay: Rat formalin paw test
2-AG [2] = assay: Rat plasma 2-AG levels after single PO dose (LC-MS/MS); format: in vivo; conditions: single PO doses up to 30 mg/kg, 4 h
Protocol: […]. MGLL activity was assessed by ABPP analysis in PBMC lysates and plasma 2-AG concentrations were measured by liquid chromatography tandem mass spectrometry (LC-MS/MS).

[3] = Phase 1 single- and multiple-dose study: plasma pharmacokinetics; format: in vivo; conditions: human, po, fasted; for AUC(0-inf): read-out: AUCinf (mean); for half-life: read-out: T1/2 (median) (converted)
Excerpt: as §1
There is a minimum 72-hour period between administration of study drug in Panels A and B. In addition, there is a minimum 2-week washout between Panel B Period 2 and Panel A Period 3 in order to evaluate available preliminary pharmacokinetic data along with safety and tolerability data from the preceding doses before proceeding with dosing in Periods 3 and 4. All doses are administered orally, together with approximately 240 mL of water. Water is otherwise restricted from 1 hour prior to, and for 1 hour after administration of study drug. In each treatment period, with the exception of Panel A Period 4 (food effect treatment period); study drug is administered after an overnight fast (for approximately 8 hours).
The allocation schedule for Periods 2 and 4 (fasted versus fed) are the same such that the same subjects receive active drug or matching placebo in the respective treatment periods.
PK: Descriptive statistics are provided by treatment (Part 1) and by treatment and day (Part 2). Minimum, median, maximum and CV are provided for all PK parameters. Arithmetic mean and standard deviation based on the raw scale are provided for AUC and Cmax. In addition, the percent CV of AUC and Cmax is also provided and calculated according to the following formula: 100×sqrt(exp(s2)−1), where s2 is the observed variance on the natural log-scale. Harmonic mean and jack-knife SD is provided for half-life. Time to steady-state, and evaluation of PK linearity are evaluated in an exploratory fashion.

2-AG [4] = assay: 2-AG and anandamide concentrations in rat tissues and plasma after oral dose; format: in vivo
Excerpt: MGLL target engagement inhibits the hydrolysis of 2-AG, elevating tissue 2-AG concentrations, which can be measured in rodent tissues and fluids by MS. Elevation of 2-AG results in enhanced cannabinoid receptor signaling and physiological responses.
Inhibition of MGLL causes accumulation of 2-AG in the rodent brain and periphery.

2-AG [5] = assay: Mouse brain 2-AG concentrations after PO dose; conditions: single-dose PO
in vivo = conditions: rat, po, 0.5 mg/kg
MGLL = MGLL (Canis lupus familiaris, UniProt A0A8I3PC77); assay: biochemical
Chain of MGLL (A0A8I3PC77 1-304): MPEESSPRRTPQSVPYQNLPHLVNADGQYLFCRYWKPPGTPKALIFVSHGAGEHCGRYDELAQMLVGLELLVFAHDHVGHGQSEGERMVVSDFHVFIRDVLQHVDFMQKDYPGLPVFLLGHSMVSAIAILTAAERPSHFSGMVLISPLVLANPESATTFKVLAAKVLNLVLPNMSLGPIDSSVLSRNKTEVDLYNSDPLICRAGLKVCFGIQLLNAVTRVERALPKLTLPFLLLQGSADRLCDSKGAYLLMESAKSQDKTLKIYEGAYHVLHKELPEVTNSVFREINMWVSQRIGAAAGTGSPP
Protocol: In vitro potency was determined using activity-based protein profiling (ABPP) which is a functional proteomic technology that uses chemical probes to covalently modify enzyme active sites in an activity-dependent manner (e.g., only catalytically active enzymes will react and become labeled with the ABPP probe). Identification of the proteins that were labeled by the probes was accomplished using polyacrylamide gel electrophoresis or mass spectrometry.

[6] = Panel C (10 mg QD×14 days) or Panel D (20 mg QD×14 days)
[7] = 100 mg, single oral dose 100 mg, Panel A, Period 3 (A3)
[8] = 100 mg, single oral dose 100 mg, Panel B, Period 4 (B4)
[9] = 200 mg, single oral dose 200 mg

Compound: O=C(OC(C(F)(F)F)C(F)(F)F)N1CCN(Cc2ccc(C(F)(F)F)cc2N2CCCC2)CC1 [Compound 1 HCl, 1,1,1,3,3,3-hexafluoropropan-2-yl 4-(2-(pyrrolidin-1-yl)-4-(trifluoromethyl)benzyl)piperazine-1-carboxylate]
- adverse events leading to discontinuation [1, 6]: no adverse events leading to the discontinuation of any subjects
- changes in vital signs, laboratory test values, or ECGs [1, 6]: no clinically significant changes
- vital sign, safety laboratory, or electrocardiographic findings ([1]; healthy male subjects, fasting state, single oral doses up to 200 mg): not associated with any vital sign, safety laboratory, or electrocardiographic findings of note

Compound: O=C(OC(C(F)(F)F)C(F)(F)F)N1CCN(Cc2ccc(C(F)(F)F)cc2N2CCCC2)CC1 [Compound 1, 1,1,1,3,3,3-hexafluoropropan-2-yl 4-(2-(pyrrolidin-1-yl)-4-(trifluoromethyl)benzyl)piperazine-1-carboxylate]
- effect of single and repeated administration on pain behaviors (formalin-challenged rats; 1 mg/kg, single vs 5 days QD, n=10, repeat dose group not statistically different from vehicle): numerically reduced pain behaviors to a similar extent
- ED50 for exposure associated with efficacy (formalin-challenged rats; rat formalin nocifensive model): 0.4 µM·h
- overt behavioral or locomotor perturbations (formalin-challenged rats; rats, at the ED50 dose and at oral doses 20-fold higher): not apparent
- Phase 2 ED50, paw licking behavior (formalin-challenged rats; single dose PO, 4 hours pre-test, n=10): 0.5 mg/kg
- effect on nociception in formalin-challenged rats (formalin-challenged rats; single dose up to 10 mg/kg PO, 4 hours pre-test, early (Phase 1) and delayed (Phase 2) phases): dose-dependent antinociceptive effects
- increase of plasma 2-AG levels (2-AG [2]): up to 7 fold
- Cmax ([3]; 2 mg, single oral dose 2 mg): 2.9 ng/mL
- Tmax ([3]; 2 mg, single oral dose 2 mg): 1.5 h
- AUC(0-inf) ([3]; 2 mg, single oral dose 2 mg): 15.9 ng·h/mL
- half-life ([3]; 2 mg, single oral dose 2 mg): 1.51 h
- Cmax ([3]; 6 mg, single oral dose 6 mg): 10.2 ng/mL
- Tmax ([3]; 6 mg, single oral dose 6 mg): 1.67 h
- AUC(0-inf) ([3]; 6 mg, single oral dose 6 mg): 47 ng·h/mL
- half-life ([3]; 6 mg, single oral dose 6 mg): 2.23 h
- Cmax ([3]; 18 mg, single oral dose 18 mg): 23.5 ng/mL
- Tmax ([3]; 18 mg, single oral dose 18 mg): 2 h
- AUC(0-inf) ([3]; 18 mg, single oral dose 18 mg): 109 ng·h/mL
- half-life ([3]; 18 mg, single oral dose 18 mg): 3.02 h
- Cmax ([3]; 50 mg, single oral dose 50 mg): 59.8 ng/mL
- Tmax ([3]; 50 mg, single oral dose 50 mg): 1.8 h
- AUC(0-inf) ([3]; 50 mg, single oral dose 50 mg): 296 ng·h/mL
- half-life ([3]; 50 mg, single oral dose 50 mg): 3.44 h
- Cmax [3, 7]: 45.7 ng/mL
- Tmax [3, 7]: 3.17 h
- AUC(0-inf) [3, 7]: 289 ng·h/mL
- half-life [3, 7]: 5.82 h
- Cmax [3, 8]: 76 ng/mL
- Tmax [3, 8]: 1.83 h
- AUC(0-inf) [3, 8]: 512 ng·h/mL
- half-life [3, 8]: 3.76 h
- Cmax [3, 9]: 109 ng/mL
- Tmax [3, 9]: 3 h
- AUC(0-inf) [3, 9]: 766 ng·h/mL
- half-life [3, 9]: 3.61 h
- elevation in brain 2-AG concentrations at the Phase 2 ED50 (2-AG [4]; rat formalin model, 0.5 mg/kg PO): approximately 3 fold
- brain levels of the endocannabinoid anandamide (2-AG [4]; rat, single oral doses): not elevated
- increase of 2-AG concentration in plasma (2-AG [4]; rat, single oral doses): 7 fold
- ED50 (2-AG [4]; rat, single oral doses up to 30 mg/kg, 4 hours, read-out: ED50 for increase of brain 2-AG concentrations (average)): 1.3 mg/kg
- increase of brain 2-AG concentrations (2-AG [5]): up to 30 fold
- concentration at 4 h (in vivo; blood): 7 nM
- concentration at 4 h (in vivo; brain): 5 nM
- IC50 (MGLL; MGLL IC50, Dog Prefrontal Cortex, 30 min pre-incubation at 37° C., mean ± SEM, n = 3): 12 ± 2 nM
- IC50 (MGLL; MGLL IC50, dog MGLL, summary statement for all species): < 30 nM
